Measured values published in PubChem BioAssay (NCI).
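Tested at 5 concentrations; 48 h exposure; 96-well plates; endpoints linearly interpolated, else capped at highest concentration. TGI is the concentration that stops growth completely.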

Experiments:
Assay in all cases: NCI anticancer screen, dose series, 48 h
OVCAR-4 ovarian = tested on: OVCAR-4 ovarian
NCI-H522 lung = tested on: NCI-H522 lung
COLO 205 colon = tested on: COLO 205 colon
SF-268 CNS = tested on: SF-268 CNS
SW-620 colon = tested on: SW-620 colon
T-47D breast = tested on: T-47D breast
DMS 114 small cell lung = tested on: DMS 114 small cell lung
CCRF-CEM leukemia = tested on: CCRF-CEM leukemia
OVCAR-3 ovarian = tested on: OVCAR-3 ovarian
UACC-62 melanoma = tested on: UACC-62 melanoma
SK-MEL-28 melanoma = tested on: SK-MEL-28 melanoma
KM12 colon = tested on: KM12 colon
HOP-18 NSCLC = tested on: HOP-18 NSCLC
M19-MEL melanoma = tested on: M19-MEL melanoma
SNB-75 CNS = tested on: SNB-75 CNS
UACC-257 melanoma = tested on: UACC-257 melanoma
LOX IMVI melanoma = tested on: LOX IMVI melanoma
SF-295 CNS = tested on: SF-295 CNS
BT-549 breast = tested on: BT-549 breast
MCF7 breast = tested on: MCF7 breast
SR leukemia = tested on: SR leukemia
SK-MEL-5 melanoma = tested on: SK-MEL-5 melanoma
SNB-78 CNS = tested on: SNB-78 CNS
RXF 393 renal = tested on: RXF 393 renal
HL-60(TB) leukemia = tested on: HL-60(TB) leukemia
XF 498 CNS = tested on: XF 498 CNS
MALME-3M melanoma = tested on: MALME-3M melanoma
NCI-H226 lung = tested on: NCI-H226 lung
HT29 colon = tested on: HT29 colon
K-562 leukemia = tested on: K-562 leukemia
MDA-N = tested on: MDA-N
MOLT-4 leukemia = tested on: MOLT-4 leukemia
NCI-H23 lung = tested on: NCI-H23 lung
TK-10 renal = tested on: TK-10 renal
HS 578T breast = tested on: HS 578T breast
HCT-116 colon = tested on: HCT-116 colon
HCC-2998 colon = tested on: HCC-2998 colon
EKVX NSCLC = tested on: EKVX NSCLC
786-0 renal = tested on: 786-0 renal
PC-3 prostate = tested on: PC-3 prostate
DMS 273 small cell lung = tested on: DMS 273 small cell lung
UO-31 renal = tested on: UO-31 renal
SK-OV-3 ovarian = tested on: SK-OV-3 ovarian
HCT-15 colon = tested on: HCT-15 colon
ACHN renal = tested on: ACHN renal
SNB-19 CNS = tested on: SNB-19 CNS
KM20L2 colon = tested on: KM20L2 colon
A498 renal = tested on: A498 renal
DU-145 prostate = tested on: DU-145 prostate
NCI-H460 lung = tested on: NCI-H460 lung
SN12C renal = tested on: SN12C renal
CAKI-1 renal = tested on: CAKI-1 renal
HOP-92 NSCLC = tested on: HOP-92 NSCLC
U251 CNS = tested on: U251 CNS
MDA-MB-435 = tested on: MDA-MB-435
M14 melanoma = tested on: M14 melanoma
SK-MEL-2 melanoma = tested on: SK-MEL-2 melanoma
A549 NSCLC = tested on: A549 NSCLC
HOP-62 NSCLC = tested on: HOP-62 NSCLC
DLD-1 colon = tested on: DLD-1 colon
OVCAR-5 ovarian = tested on: OVCAR-5 ovarian
OVCAR-8 ovarian = tested on: OVCAR-8 ovarian
MDA-MB-231 breast = tested on: MDA-MB-231 breast
NCI/ADR-RES ovarian = tested on: NCI/ADR-RES ovarian
IGROV1 ovarian = tested on: IGROV1 ovarian
SF-539 CNS = tested on: SF-539 CNS
RPMI-8226 leukemia = tested on: RPMI-8226 leukemia
LXFL 529 NSCLC = tested on: LXFL 529 NSCLC

O=C1C=C(Br)C(=O)C12CCc1ccccc12 (stereo not given)
TGI (OVCAR-4 ovarian): 52.4 µM | TGI (NCI-H522 lung): 10.2 µM | TGI (COLO 205 colon): 11.2 µM | TGI (SF-268 CNS): 58.7 µM | TGI (SW-620 colon): 16.2 µM | TGI (T-47D breast): 50.4 µM | TGI (DMS 114 small cell lung): 45.2 µM | TGI (CCRF-CEM leukemia): > 27.5 µM | TGI (OVCAR-3 ovarian): 41.8 µM | TGI (UACC-62 melanoma): 32 µM | TGI (SK-MEL-28 melanoma): 27.2 µM | TGI (KM12 colon): 44.6 µM | TGI (HOP-18 NSCLC): 16.1 µM | TGI (M19-MEL melanoma): 36.5 µM | TGI (SNB-75 CNS): 29.5 µM | TGI (UACC-257 melanoma): 41.3 µM | TGI (LOX IMVI melanoma): 31.7 µM | TGI (SF-295 CNS): 36.6 µM | TGI (BT-549 breast): 34.2 µM | TGI (MCF7 breast): 48.5 µM | TGI (SR leukemia): 17.3 µM | TGI (SK-MEL-5 melanoma): 34.6 µM | TGI (SNB-78 CNS): 59.4 µM | TGI (RXF 393 renal): 19.1 µM | TGI (HL-60(TB) leukemia): 25.2 µM | TGI (XF 498 CNS): 28.8 µM | TGI (MALME-3M melanoma): 29.5 µM | TGI (NCI-H226 lung): 35.8 µM | TGI (HT29 colon): 45 µM | TGI (K-562 leukemia): 9.26 µM | TGI (MDA-N): 38 µM | TGI (MOLT-4 leukemia): 6.89 µM | TGI (NCI-H23 lung): 44.6 µM | TGI (TK-10 renal): 32.3 µM | TGI (HS 578T breast): > 82.5 µM | TGI (HCT-116 colon): 28.7 µM | TGI (HCC-2998 colon): 40.2 µM | TGI (EKVX NSCLC): 62 µM | TGI (786-0 renal): 42.3 µM | TGI (PC-3 prostate): 32.5 µM | TGI (DMS 273 small cell lung): 37.8 µM | TGI (UO-31 renal): 33 µM | TGI (SK-OV-3 ovarian): 42.6 µM | TGI (HCT-15 colon): 19.7 µM | TGI (ACHN renal): 24.7 µM | TGI (SNB-19 CNS): 66.6 µM | TGI (KM20L2 colon): 64.5 µM | TGI (A498 renal): 24.1 µM | TGI (DU-145 prostate): 31.7 µM | TGI (NCI-H460 lung): 48 µM | TGI (SN12C renal): 35 µM | TGI (CAKI-1 renal): 16.3 µM | TGI (HOP-92 NSCLC): 27.3 µM | TGI (U251 CNS): 41.8 µM | TGI (MDA-MB-435): 31.8 µM | TGI (M14 melanoma): 19.3 µM | TGI (SK-MEL-2 melanoma): 54.2 µM | TGI (A549 NSCLC): 55.4 µM | TGI (HOP-62 NSCLC): 69 µM | TGI (DLD-1 colon): 28.8 µM | TGI (OVCAR-5 ovarian): 33.3 µM | TGI (OVCAR-8 ovarian): 64.6 µM | TGI (MDA-MB-231 breast): 70.2 µM | TGI (NCI/ADR-RES ovarian): 81.3 µM | TGI (IGROV1 ovarian): 39.3 µM | TGI (SF-539 CNS): 35.6 µM | TGI (RPMI-8226 leukemia): > 37.5 µM | TGI (LXFL 529 NSCLC): 13.2 µM

O=c1cc2ccccc2nn1Cc1ccccc1Cl
TGI (OVCAR-4 ovarian): > 100 µM | TGI (COLO 205 colon): > 100 µM | TGI (SF-268 CNS): > 100 µM | TGI (SW-620 colon): > 100 µM | TGI (DMS 114 small cell lung): > 100 µM | TGI (CCRF-CEM leukemia): > 100 µM | TGI (OVCAR-3 ovarian): > 100 µM | TGI (UACC-62 melanoma): > 100 µM | TGI (SK-MEL-28 melanoma): > 100 µM | TGI (KM12 colon): > 100 µM | TGI (HOP-18 NSCLC): > 100 µM | TGI (M19-MEL melanoma): > 100 µM | TGI (SNB-75 CNS): 93.8 µM | TGI (UACC-257 melanoma): > 100 µM | TGI (LOX IMVI melanoma): > 100 µM | TGI (SF-295 CNS): > 100 µM | TGI (SK-MEL-5 melanoma): > 100 µM | TGI (SNB-78 CNS): > 100 µM | TGI (XF 498 CNS): > 100 µM | TGI (MALME-3M melanoma): > 100 µM | TGI (NCI-H226 lung): > 100 µM | TGI (HT29 colon): > 100 µM | TGI (K-562 leukemia): > 100 µM | TGI (NCI-H23 lung): > 100 µM | TGI (TK-10 renal): > 100 µM | TGI (HCT-116 colon): > 100 µM | TGI (HCC-2998 colon): > 100 µM | TGI (EKVX NSCLC): > 100 µM | TGI (786-0 renal): > 100 µM | TGI (DMS 273 small cell lung): > 100 µM | TGI (UO-31 renal): > 100 µM | TGI (SK-OV-3 ovarian): > 100 µM | TGI (HCT-15 colon): > 100 µM | TGI (ACHN renal): > 100 µM | TGI (SNB-19 CNS): > 100 µM | TGI (KM20L2 colon): > 100 µM | TGI (A498 renal): > 100 µM | TGI (NCI-H460 lung): > 100 µM | TGI (SN12C renal): > 100 µM | TGI (CAKI-1 renal): > 100 µM | TGI (HOP-92 NSCLC): > 100 µM | TGI (U251 CNS): > 100 µM | TGI (M14 melanoma): > 100 µM | TGI (SK-MEL-2 melanoma): > 100 µM | TGI (A549 NSCLC): > 100 µM | TGI (HOP-62 NSCLC): > 100 µM | TGI (DLD-1 colon): > 100 µM | TGI (OVCAR-5 ovarian): > 100 µM | TGI (OVCAR-8 ovarian): > 100 µM | TGI (IGROV1 ovarian): > 100 µM | TGI (SF-539 CNS): > 100 µM | TGI (RPMI-8226 leukemia): > 100 µM
